Source: ChEMBL document CHEMBL1201862, “PubChem BioAssay data set” (2004)
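Values below derive from 48-hour exposures of cells grown in 96-well plates, with endpoints linearly interpolated between the two concentrations bracketing the appropriate inhibition level. GI50 marks 50% less growth.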 The source made the active and inactive calls. No stated cut-off is given here; in the data, active = GI50 up to about 1.1 µM and inactive = higher.

Tests used:
Test in all cases: DTP human tumour cell line panel, 48 h
[1] = system: IGROV-1
[2] = system: SNB-75
[3] = system: HOP-92
[4] = system: T47D
[5] = system: CCRF-CEM
[6] = system: SF-295
[7] = system: SK-MEL-5
[8] = system: A549
[9] = system: U-251
[10] = system: TK-10
[11] = system: NCI-H23
[12] = system: UACC-62
[13] = system: NCI-H460
[14] = system: MDA-MB-435
[15] = system: CAKI-1
[16] = system: HCT-116
[17] = system: MOLT-4
[18] = system: OVCAR-4
[19] = system: LOX IMVI
[20] = system: NCI/ADR-RES

| Structure (SMILES) | GI50 [1] | GI50 [2] | GI50 [3] | GI50 [4] | GI50 [5] | GI50 [6] | GI50 [7] | GI50 [8] | GI50 [9] | GI50 [10] | GI50 [11] | GI50 [12] | GI50 [13] | GI50 [14] | GI50 [15] | GI50 [16] | GI50 [17] | GI50 [18] | GI50 [19] | GI50 [20] |
| --- | --- | --- | --- | --- | --- | --- | --- | --- | --- | --- | --- | --- | --- | --- | --- | --- | --- | --- | --- | --- |
| CC1C2CC(CC2N)C1(C)C (centres undefined) | > 100 µM (inactive) | > 100 µM (inactive) | > 100 µM (inactive) | > 100 µM (inactive) | > 100 µM (inactive) | > 100 µM (inactive) | > 100 µM (inactive) | > 100 µM (inactive) | > 100 µM (inactive) | > 100 µM (inactive) | > 100 µM (inactive) | > 100 µM (inactive) | > 100 µM (inactive) | > 100 µM (inactive) | > 100 µM (inactive) | > 100 µM (inactive) | > 100 µM (inactive) | > 100 µM (inactive) | – | – |
| Cc1ccccc1C1OC1C(=O)c1ccccc1N (centres undefined) | – | – | > 100 µM (inactive) | – | > 100 µM (inactive) | – | 44.5 µM (inactive) | 48 µM (inactive) | > 100 µM (inactive) | > 100 µM (inactive) | 38.6 µM (inactive) | 52.8 µM (inactive) | 63.8 µM (inactive) | 20.7 µM (inactive) | 45.8 µM (inactive) | 44.1 µM (inactive) | 39.3 µM (inactive) | 47.5 µM (inactive) | 34.9 µM (inactive) | 51.3 µM (inactive) |
| Cc1ccccc1N/C(N)=N/C#N | > 100 µM (inactive) | > 100 µM (inactive) | 97.7 µM (inactive) | – | > 100 µM (inactive) | – | > 100 µM (inactive) | > 100 µM (inactive) | > 100 µM (inactive) | > 100 µM (inactive) | > 100 µM (inactive) | > 100 µM (inactive) | > 100 µM (inactive) | > 100 µM (inactive) | > 100 µM (inactive) | > 100 µM (inactive) | > 100 µM (inactive) | > 100 µM (inactive) | > 100 µM (inactive) | > 100 µM (inactive) |
| COc1cc(C)c2c(=O)c3ccccc3n(C)c2c1 | 26.9 µM (inactive) | 26.4 µM (inactive) | 7.43 µM (inactive) | – | 21.9 µM (inactive) | 15.5 µM (inactive) | > 10 µM (inactive) | 38.5 µM (inactive) | 20 µM (inactive) | 40.9 µM (inactive) | 24.3 µM (inactive) | 20.3 µM (inactive) | 33.3 µM (inactive) | 40.8 µM (inactive) | 31.3 µM (inactive) | 18.5 µM (inactive) | 29.2 µM (inactive) | 19.7 µM (inactive) | 17.4 µM (inactive) | 30.5 µM (inactive) |
| COc1ccc2nc3cc(Cl)ccc3c(NCCCNCc3cc(OC)c(OC)c(OC)c3)c2c1 | 1.82 µM (inactive) | – | – | 1.89 µM (inactive) | 0.865 µM (active) | 1.51 µM (inactive) | 1.4 µM (inactive) | 1.83 µM (inactive) | 1.76 µM (inactive) | 1.73 µM (inactive) | 1.71 µM (inactive) | 1.91 µM (inactive) | 1.64 µM (inactive) | 1.82 µM (inactive) | 1.71 µM (inactive) | 1.24 µM (inactive) | 0.515 µM (active) | 1.78 µM (inactive) | 1.54 µM (inactive) | 2.08 µM (inactive) |
| CC(=O)NC(C)(C)C1CC=C(C)CC1 (centres undefined) | > 100 µM (inactive) | > 100 µM (inactive) | – | – | > 100 µM (inactive) | > 100 µM (inactive) | > 100 µM (inactive) | > 100 µM (inactive) | > 100 µM (inactive) | > 100 µM (inactive) | > 100 µM (inactive) | > 100 µM (inactive) | > 100 µM (inactive) | > 100 µM (inactive) | > 100 µM (inactive) | > 100 µM (inactive) | > 100 µM (inactive) | > 100 µM (inactive) | > 100 µM (inactive) | > 100 µM (inactive) |
| COc1ccc(NC2Oc3cc4c(cc3C(c3cccc(OC)c3OC)C2C)OCO4)cc1 (centres undefined) | 8.75 µM (inactive) | 5.06 µM (inactive) | 3.32 µM (inactive) | 5.08 µM (inactive) | 3.61 µM (inactive) | 3.73 µM (inactive) | 13.6 µM (inactive) | 5.53 µM (inactive) | 4.01 µM (inactive) | 6.4 µM (inactive) | 11.9 µM (inactive) | 14.9 µM (inactive) | 5.86 µM (inactive) | 10 µM (inactive) | 3.72 µM (inactive) | 3.83 µM (inactive) | 2.9 µM (inactive) | – | 11.4 µM (inactive) | – |
| O=c1c(-c2ccccc2F)coc2cc(F)ccc12 | 88.3 µM (inactive) | 24.2 µM (inactive) | > 100 µM (inactive) | > 100 µM (inactive) | > 100 µM (inactive) | > 100 µM (inactive) | > 100 µM (inactive) | > 100 µM (inactive) | 97.7 µM (inactive) | > 100 µM (inactive) | 63.4 µM (inactive) | > 100 µM (inactive) | > 100 µM (inactive) | > 100 µM (inactive) | > 100 µM (inactive) | > 100 µM (inactive) | > 100 µM (inactive) | > 100 µM (inactive) | 34.8 µM (inactive) | – |
| CC1(C)OC(CCO)CN1C(=O)OCc1ccccc1 (centres undefined) | > 100 µM (inactive) | 92 µM (inactive) | > 100 µM (inactive) | – | > 100 µM (inactive) | > 100 µM (inactive) | > 100 µM (inactive) | > 100 µM (inactive) | > 100 µM (inactive) | > 100 µM (inactive) | > 100 µM (inactive) | > 100 µM (inactive) | > 100 µM (inactive) | > 100 µM (inactive) | > 100 µM (inactive) | > 100 µM (inactive) | > 100 µM (inactive) | > 100 µM (inactive) | > 100 µM (inactive) | > 100 µM (inactive) |
| COC(=O)C(C(=O)C(=O)Nc1ccc([N+](=O)[O-])cc1)c1nc2ccc([N+](=O)[O-])cc2nc1O (centres undefined) | > 100 µM (inactive) | > 100 µM (inactive) | > 100 µM (inactive) | – | 55.2 µM (inactive) | > 100 µM (inactive) | 65.6 µM (inactive) | > 100 µM (inactive) | > 100 µM (inactive) | > 100 µM (inactive) | > 100 µM (inactive) | 63.1 µM (inactive) | > 100 µM (inactive) | – | > 100 µM (inactive) | > 100 µM (inactive) | > 100 µM (inactive) | > 100 µM (inactive) | > 100 µM (inactive) | – |
| CCOC(=O)CC(c1ccccc1)C(C)(C(=O)OCC)C(=O)OCC (centres undefined) | > 100 µM (inactive) | 87.3 µM (inactive) | – | 78.2 µM (inactive) | > 100 µM (inactive) | > 100 µM (inactive) | > 100 µM (inactive) | > 100 µM (inactive) | > 100 µM (inactive) | > 100 µM (inactive) | > 100 µM (inactive) | > 100 µM (inactive) | > 100 µM (inactive) | – | > 100 µM (inactive) | > 100 µM (inactive) | 76.9 µM (inactive) | > 100 µM (inactive) | > 100 µM (inactive) | > 100 µM (inactive) |
| COc1cc2oc(=O)cc(C)c2c(OC)c1OC(C)=O | > 100 µM (inactive) | > 100 µM (inactive) | – | – | > 100 µM (inactive) | > 100 µM (inactive) | > 100 µM (inactive) | > 100 µM (inactive) | > 100 µM (inactive) | > 100 µM (inactive) | > 100 µM (inactive) | > 100 µM (inactive) | – | > 100 µM (inactive) | – | > 100 µM (inactive) | > 100 µM (inactive) | > 100 µM (inactive) | > 100 µM (inactive) | > 100 µM (inactive) |
| CN(c1nc(=[N+](C)C)ss1)C1CCCCC1 | > 100 µM (inactive) | > 100 µM (inactive) | > 100 µM (inactive) | – | 6.92 µM (inactive) | 93.1 µM (inactive) | 68.7 µM (inactive) | 38.3 µM (inactive) | 33.4 µM (inactive) | > 100 µM (inactive) | 74.3 µM (inactive) | 19.4 µM (inactive) | 13.3 µM (inactive) | – | > 100 µM (inactive) | > 100 µM (inactive) | 95.1 µM (inactive) | > 100 µM (inactive) | > 100 µM (inactive) | – |
| CN(CCO)c1nc(=O)c2c([nH]1)CCC2 | > 100 µM (inactive) | 43.9 µM (inactive) | > 100 µM (inactive) | – | > 100 µM (inactive) | > 100 µM (inactive) | > 100 µM (inactive) | > 100 µM (inactive) | > 100 µM (inactive) | > 100 µM (inactive) | > 100 µM (inactive) | > 100 µM (inactive) | > 100 µM (inactive) | – | > 100 µM (inactive) | > 100 µM (inactive) | > 100 µM (inactive) | > 100 µM (inactive) | > 100 µM (inactive) | – |
| CC1=C2CC(C)(C)CC(=O)C2(C)CCC1=O (centres undefined) | > 100 µM (inactive) | > 100 µM (inactive) | – | > 100 µM (inactive) | > 100 µM (inactive) | > 100 µM (inactive) | > 100 µM (inactive) | > 100 µM (inactive) | > 100 µM (inactive) | > 100 µM (inactive) | > 100 µM (inactive) | > 100 µM (inactive) | > 100 µM (inactive) | – | > 100 µM (inactive) | > 100 µM (inactive) | > 100 µM (inactive) | > 100 µM (inactive) | > 100 µM (inactive) | > 100 µM (inactive) |
| CCN1C(=O)/C(=C2\SC(c3ccccc3)(c3ccccc3)c3ccccc32)SC1=S | 70.3 µM (inactive) | 53.1 µM (inactive) | 30.5 µM (inactive) | – | > 100 µM (inactive) | 24.4 µM (inactive) | > 100 µM (inactive) | 87.9 µM (inactive) | 44.7 µM (inactive) | > 100 µM (inactive) | > 100 µM (inactive) | > 100 µM (inactive) | > 100 µM (inactive) | > 100 µM (inactive) | – | 47 µM (inactive) | 96.4 µM (inactive) | 63.4 µM (inactive) | 38.6 µM (inactive) | > 100 µM (inactive) |
